Patent publication US20160368943A1, “SUBSTITUTED PURINE COMPOUNDS” (EPIZYME, INC., priority 2013, published 2016)
Several values for one entry are separate records, joined by “and”; a condition that tells them apart may be missing. Equal entries are not always repeated. Where two headings read alike, the source gives them in different places.

Columns and labels:
[1] = Prediction of human pharmacokinetics by interspecies scaling
From the text: PK endpoints of CL and VDss in mouse, rat and dog were used to scale to the corresponding parameters in human using a variety of allometric and interspecies scaling approaches as previously reported (Boxenbaum, Journal of Pharmacokinetics and Biopharmaceutics 10(2): 201-227, 1982; Jones et al., Journal of Pharmaceutical Sciences 100(10): 4074-4089, 2011; Lombardo et al., J Clin Pharmacol 53(2): 178-191, 2013a; Lombardo et al., J Clin Pharmacol 53(2): 167-177, 2013b; Mahmood & Balian, Xenobiotica 26(9): 887-895, 1996; Ring et al., Journal of Pharmaceutical Sciences 100(10): 4090-4110, 2011; Tang & Mayersohn, Journal of Pharmaceutical Sciences 95(8): 1783-1799, 2006; Tang & Mayersohn, Drug Metabolism and Disposition 33(9): 1297-1303, 2005; Vuppugalla et al., Journal of Pharmaceutical Sciences 100(10): 4111-4126, 2011). The likely predictive accuracy of each method was assessed based on visual inspection of the data fit, as well as values such as the R^2 and the allometric exponent, where appropriate.

[2] = Pharmacokinetic study in rat; type: in vivo, Sprague-Dawley rat
Protocol: In the IV bolus study, 1 mg/kg doses prepared in 0.4% HPBCD in saline were administered via foot dorsal vein injection. At each timepoint, 150 μL of blood was collected via tail vein into EDTA-K2 tubes. The blood samples were maintained in wet ice initially and centrifuged to obtain plasma (2000 g, 4° C., 5 minutes) within 15 minutes post sampling. In the PO study, doses prepared in 10% Ethanol:5% Solutol HS15:85% (5% of dextrose in water) were administered by oral gavage. Samples were collected as described above. In the IV infusion study, doses were prepared in 10% PEG400 in 0.9% saline and administered into the femoral vein, at a dose of 4.7 mg/kg/day for 7 days. 500 μL of blood was collected by jugular venipuncture at timepoints over 7 days and placed on crushed wet ice until centrifugation, which was carried out as soon as practical. The samples were centrifuged for 10 minutes at 4° C. at 2700 rpm. The resultant plasma was separated and frozen immediately over dry ice for LC-MS/MS analysis. […] Typically, samples were injected onto an LC-MS/MS system using a Waters BEH Phenyl column. The aqueous mobile phase was water with 0.1% NH4OH (A), and the organic mobile phase was acetonitrile with 0.1% NH4OH (B). The gradient was as follows: 37% B for the first 0.2 min, increased to 44% B from 0.2 to 0.6 min, maintained at 44% B for 0.5 min, and decreased to 37% B within 0.05 min. The injection volume was 2 uL, and the total run time was 1.5 min with a flow rate of 0.6 mL/min. […] The ionization was conducted in the positive ion mode using the MRM transition [M+H]+m/z 563.5 parent ion to m/z 326.3 daughter ion, incorporating a turbo-ionspray interface. Eight to ten calibration standards were prepared in blank plasma of the relevant species providing a typical standard curve concentration range of 5-500 ng/mL. Pharmacokinetic parameters were calculated by noncompartmental methods using WinNonlin (version 5.3; Pharsight, St. Louis, Mo.). Parameters are presented as mean±S.D.

[3] = Liver microsomes supplemented with UDPGA and alamethacin (glucuronidation); type: in vitro ADME
[4] = male, Sprague-Dawley, plasma, SD rat, IV bolus, 1 mg/kg
[5] = male, Sprague-Dawley, plasma, SD rat, IV infusion, 4.7 mg/kg/day for 7 days
[6] = male, Sprague-Dawley, plasma, SD rat, PO, 10 mg/kg

CC(C)N(C[C@H]1O[C@@H](n2cnc3c(N)ncnc32)[C@H](O)[C@@H]1O)[C@H]1C[C@@H](CCc2nc3cc(C(C)(C)C)ccc3[nH]2)C1 [Compound A, (2R,3R,4S,5R)-2-(6-amino-9H-purin-9-yl)-5-((((1r,3S)-3-(2-(5-(tert-butyl)-1H-benzo[d]imidazol-2-yl)ethyl)cyclobutyl)(isopropyl)amino)methyl)tetrahydrofuran-3,4-diol]
Predicted human VDss ([1]; Consensus prediction): 2.8 L/kg and 2.76 L/kg
Predicted human CL ([1]; Consensus prediction (excludes simple allometry)): 6.5 mL/min/kg
Predicted human CL ([1]; MLR rat-dog): 11 mL/min/kg and 10.7 mL/min/kg
Predicted human VDss ([1]; Oie-Tozer equation, rat and dog data): 0.97 L/kg
Predicted human CL ([1]; Simple allometry): 13.3 mL/min/kg
Predicted human VDss ([1]; Simple allometry): 2.71 L/kg
allometric exponent for CL ([1]; Simple allometry): 0.76
Predicted human VDss ([1]; Simple allometry - unbound): 1.16 L/kg
Predicted human VDss ([1]; Wajima equation, rat and dog data): 6.2 L/kg
human CL estimates ([1]; across multiple, diverse scaling approaches): 6 to 8 mL/min/kg
Predicted human VDss ([1]; simple allometry (total and unbound) and Oie-Tozer equation): 1 to 3 L/kg
Predicted human VDss ([1]; simple allometry using total and unbound terms): 1.2 to 2.7 L/kg
CL ([2]; SD rat, IV bolus, 1 mg/kg): 67.8 ± 5.3 mL/min/kg
t1/2 ([2]; SD rat, IV bolus, 1 mg/kg): 224 ± 61.8 min
time to steady state ([2]; SD rat, IV infusion, 4.7 mg/kg/day): ≤ 1 h
F ([2]; SD rat, PO, 10 mg/kg): <1%
AUC(0-inf) [2, 4]: 0.44 ± 0.03 µM·h
AUC(0-t) [2, 4]: 0.43 ± 0.03 µM·h
Cmax [2, 4]: 2040 ± 230 nM
MRT [2, 4]: 24.6 ± 6 min
Tmax [2, 4]: 3 min
AUC(0-inf) [2, 5]: 12.5 µM·h
AUC(0-t) [2, 5]: 12.5 µM·h
Cmax [2, 5]: 130 nM
Tmax [2, 5]: 240 min
concentration at 7 days ([2]; male, Sprague-Dawley, plasma, SD rat, IV infusion, 4.7 mg/kg/day for 7 days, read-out: average steady state concentration): 78 nM
Cmax [2, 6]: 0.7 nM
Tmax [2, 6]: 15 min
half-life ([2]; male, Sprague-Dawley, rat, plasma, iv, 1 mg/kg, SD rat, IV bolus): 222 min
clearance ([2]; male, Sprague-Dawley, rat, plasma, iv, 1 mg/kg, SD rat, IV bolus, 1 mg/kg, read-out: CL): 68 mL/min/kg
Vd ([2]; male, Sprague-Dawley, rat, plasma, iv, 1 mg/kg, SD rat, IV bolus, 1 mg/kg, read-out: VDss): 1.66 L/kg
Vd ([2]; male, Sprague-Dawley, rat, plasma, iv, 1 mg/kg, rat, read-out: Unbound VDss): 6.1 L/kg
clearance ([2]; male, Sprague-Dawley, rat, plasma, iv, 4.7 mg/kg/day, SD rat, IV infusion, 4.7 mg/kg/day, Css 78 nM, read-out: CL estimate from IV infusion (dose rate divided by Css)): 74 mL/min/kg
oral bioavailability (in words) ([2]; rat, PO): low and negligible
turnover (glucuronidation) [3]: no turnover was observed
